From US12662451B2, “Chemical compounds and uses thereof” (GLAXOSMITHKLINE INTELLECTUAL PROPERTY (NO.4) LIMITED, priority 2023, dated 2026)
Counter-ions that a name gives are not always drawn.

These compounds were tested against T1, recombinant full-length WRN protein (1-1432) (Homo sapiens, UniProt Q14191) (assay: WRN unwinding activity, fluorogenic 384-well assay (Example A)). Settings: 4 hr UNW pIC50, WRN unwinding activity, Table 2.
T1 construct: recombinant full-length WRN protein (1-1432)
Assay type: biochemical
Method: Functional WRN unwinding activity can be measured using a fluorogenic plate based 384 well assay configured to measure the separation of labeled double stranded DNA substrate. Compounds were dosed out in neat DMSO with a 1:3 serial dilution scheme. 100 nL of compound was stamped into Greiner low volume black assay plates (Greiner Cat #784076) using the Echo Acoustic Dispenser to generate assay ready plates. All solutions were prepared in assay buffer (25 mM TRIS (pH8.0), 5 mM NaCl, 2 mM MgCl2, 1 mM DTT, 0.05% BSA) for this 10 μL low volume reaction. To prepare the solutions, a 2×WRN Enzyme cocktail was made containing 200 pM of recombinant full-length WRN protein (1-1432). A 2× Substrate cocktail was made to consist of both 200 μM ATP (any ultrapure ATP sample) and 12 nM of the fluorescent quenched labeled double stranded DNA oligomer (IDT Custom synthesis; 5′-5IABkFQ (SEQ ID NO. 1)/GCACTGGCCGTCGTTTTACGGTCGTGACT-3′ (SEQ ID NO. 2): 5′-TTTTTTACTTAACGACGGCCAGTGC (SEQ ID NO. 3)/36-TAMTSP/-3′ (SEQ ID NO. 4)). To start the reaction, 5 μL of assay buffer was added to a single column to serve as the low control. Following this, 5 μL of 2×WRN Enzyme was added in all wells except the buffer low control wells. The reaction plate was covered and incubated at ambient temperature for 4 hours to allow for time dependent inhibition if it existed. After 4 hours, the addition of 5 μL of 2×-ATP/DNA substrate cocktail was added across all wells of the assay plate. This initiated the reaction, as the plate was incubated at ambient temperature for 60 minutes for the unwinding reaction to occur. A 10 mM EDTA solution was prepared and added at 5 μL across the entire plate after 60 minutes to quench the samples for an endpoint measurement. Fluorescent intensity was measured using excitation and emission wavelengths of 525 nm and 598 nm, respectively. High florescent intensity (DMSO with buffer) represents full inhibition of unwinding activity and low florescent intensity (DMSO with enzyme) represents no inhibition of unwinding activity. The potency of the compounds was determined using a four-parameter inhibition model to generate pIC50, Hill Slope, maximum inhibition (see Table 2).

T1 sequence (Q14191 whole entry): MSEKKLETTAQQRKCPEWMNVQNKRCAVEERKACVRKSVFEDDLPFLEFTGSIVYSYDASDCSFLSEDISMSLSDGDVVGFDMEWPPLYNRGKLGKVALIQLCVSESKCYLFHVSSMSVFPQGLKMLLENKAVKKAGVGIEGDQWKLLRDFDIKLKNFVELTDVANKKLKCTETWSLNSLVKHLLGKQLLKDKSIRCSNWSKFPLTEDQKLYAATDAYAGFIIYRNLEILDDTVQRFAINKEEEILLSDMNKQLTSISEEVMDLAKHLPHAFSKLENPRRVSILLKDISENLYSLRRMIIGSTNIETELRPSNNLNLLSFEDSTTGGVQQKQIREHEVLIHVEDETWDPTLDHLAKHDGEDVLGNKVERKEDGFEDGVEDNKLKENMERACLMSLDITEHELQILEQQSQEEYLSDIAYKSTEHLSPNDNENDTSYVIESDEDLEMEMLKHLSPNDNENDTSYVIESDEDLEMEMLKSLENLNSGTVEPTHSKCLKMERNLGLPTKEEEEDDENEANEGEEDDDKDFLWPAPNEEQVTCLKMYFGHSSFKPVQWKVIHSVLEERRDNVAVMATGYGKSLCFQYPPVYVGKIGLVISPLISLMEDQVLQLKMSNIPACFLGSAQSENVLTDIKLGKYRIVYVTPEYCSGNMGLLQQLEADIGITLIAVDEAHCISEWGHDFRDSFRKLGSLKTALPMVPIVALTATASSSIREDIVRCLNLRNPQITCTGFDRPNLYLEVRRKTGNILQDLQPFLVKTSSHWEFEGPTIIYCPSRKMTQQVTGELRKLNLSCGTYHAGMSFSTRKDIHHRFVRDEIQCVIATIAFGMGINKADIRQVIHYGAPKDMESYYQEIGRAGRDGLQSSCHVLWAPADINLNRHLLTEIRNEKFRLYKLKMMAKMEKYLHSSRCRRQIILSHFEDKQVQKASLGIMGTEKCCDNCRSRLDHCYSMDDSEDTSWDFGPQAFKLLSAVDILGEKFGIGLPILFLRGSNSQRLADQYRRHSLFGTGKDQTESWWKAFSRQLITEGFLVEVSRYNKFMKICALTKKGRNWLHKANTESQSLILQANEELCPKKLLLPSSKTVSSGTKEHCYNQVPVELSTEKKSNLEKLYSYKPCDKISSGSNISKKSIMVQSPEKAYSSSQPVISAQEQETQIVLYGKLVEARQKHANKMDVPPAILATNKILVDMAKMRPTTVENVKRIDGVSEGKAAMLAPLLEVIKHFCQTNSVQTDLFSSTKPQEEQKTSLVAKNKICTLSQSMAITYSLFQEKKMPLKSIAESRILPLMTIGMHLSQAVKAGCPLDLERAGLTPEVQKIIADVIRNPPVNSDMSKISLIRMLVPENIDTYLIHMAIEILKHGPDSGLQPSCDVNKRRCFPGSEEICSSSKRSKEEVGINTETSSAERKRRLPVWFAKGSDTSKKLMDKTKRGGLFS

| Structure (SMILES) | IC50 [nM] |
| --- | --- |
| CN(c1ccc([C@H]2CCC[C@@H](COc3ccc(C(F)(F)F)cc3)[C@@H]2C(=O)O)cc1)S(=O)(=O)c1cccc([C@H]2CCCNC2)c1 (relative stereo) [Example 213, (1R,2S,6R)-2-(4-((N-methyl-3-((R*)-piperidin-3-yl)phenyl)sulfonamido)phenyl)-6-((4-(trifluoromethyl)phenoxy)methyl)cyclohexane-1-carboxylic acid, formic acid salt] | 39.8 |

Same assay, conditions: WRN unwinding activity, 4 hr; Table 2; read-out: 4 hr UNW pIC50 (converted)

| Structure (SMILES) | IC50 [nM] |
| --- | --- |
| CC#Cc1cc([C@H]2CCC[C@@H](C(=O)Nc3ccc(C(F)(F)F)cc3F)[C@@H]2C(=O)O)ccc1C(F)(F)F (racemic) [Example 240, rac-(1R,2R,6S)-2-((2-fluoro-4-(trifluoromethyl)phenyl)carbamoyl)-6-(3-(prop-1-yn-1-yl)-4-(trifluoromethyl)phenyl)cyclohexane-1-carboxylic acid] | 3980 |
| O=C(Nc1ccc(C(F)(F)F)cc1)[C@@H]1CCC[C@H](c2ccc(Br)cc2)[C@@]1(F)C(=O)O (racemic) [Example 243, rac-(1R,2S,6R)-2-(4-bromophenyl)-1-fluoro-6-((4-(trifluoromethyl)phenyl)carbamoyl)cyclohexane-1-carboxylic acid] | 5010 |
| O=C(O)[C@@H]1[C@@H](c2ccc(C(F)(F)F)cc2CO)CCC[C@H]1C(=O)Nc1ccc(C(F)(F)F)cc1F (racemic) [Example 246, rac-(1R,2R,6S)-2-((2-fluoro-4-(trifluoromethyl)phenyl)carbamoyl)-6-(2-(hydroxymethyl)-4-(trifluoromethyl)phenyl)cyclohexane-1-carboxylic acid] | 126 |
| Cc1nc2cc(S(=O)(=O)N(C)c3ccc([C@@H]4CCC[C@H](C(=O)Nc5ccc(C(F)(F)F)cc5F)[C@H]4C(=O)O)cc3C#N)ccc2n1C (relative stereo) [Example 163, rel-(1R,2S,6R)-2-(3-cyano-4-((N,1,2-trimethyl-1H-benzo[d]imidazole)-5-sulfonamido)phenyl)-6-((2-fluoro-4-(trifluoromethyl)phenyl)carbamoyl)cyclohexane-1-carboxyl c acid] | 20 |
| Cc1nc2cc(S(=O)(=O)N(C)c3ccc([C@H]4CCC[C@H](C(=O)Nc5ccc(C(C)C)cc5)[C@@H]4C(=O)O)cc3)ccc2n1C (single isomer, unassigned) [Example 74] | 251 |
| Cc1nc2cc(S(=O)(=O)N(C)c3ccc([C@H]4CCC[C@@H](C(=O)Nc5ccc(C(C)C)cc5)[C@H]4C(=O)O)cc3)ccc2n1C (single isomer, unassigned) [Example 76] | 1260 |
| Cc1nc2cc(S(=O)(=O)N(C)c3ccc([C@H]4CCC[C@@H](C(=O)Nc5ccc(C(C)C)cc5)[C@@H]4C(=O)O)cc3)ccc2n1C (single isomer, unassigned) [Example 79] | 501 |
| CN(c1ccc([C@H]2CCC[C@@H](C(=O)Nc3ccc(C(F)(F)F)cc3F)[C@@H]2C(=O)O)cc1)S(=O)(=O)c1ccc2[nH]cnc2c1 (single isomer, unassigned) [Example 85] | 251 |
| CN(c1ccc([C@H]2CCC[C@@H](C(=O)Nc3ccc(C(F)(F)F)cc3F)[C@@H]2C(=O)O)cc1)S(=O)(=O)c1ccc2c(c1)ncn2C (single isomer, unassigned) [Example 87] | 316 |
| CC(=O)N1CCc2cc(S(=O)(=O)N(C)c3ccc([C@H]4CCC[C@@H](C(=O)Nc5ccc(C(F)(F)F)cc5F)[C@@H]4C(=O)O)cc3)ccc21 (single isomer, unassigned) [Example 89] | 200 |
| Cc1nc2cc(S(=O)(=O)N(C)c3ccc([C@H]4CCC[C@@H](C(=O)Nc5ccc(C(F)(F)F)cc5F)[C@@H]4C(=O)O)cc3)ccc2[nH]1 (single isomer, unassigned) [Example 91] | 126 |
| CCO[C@@H]1C[C@H](C(=O)Nc2ccc(C(F)(F)F)cc2F)[C@@H](C(=O)O)[C@H](c2ccc(N(C)S(=O)(=O)c3ccc4c(c3)nc(C)n4C)cc2)C1 (single isomer, unassigned) [Example 137] | 251 |
| Cc1nc2cc(S(=O)(=O)N(C)c3ccc([C@H]4C[C@@H](O)C[C@@H](C(=O)Nc5ccc(C(F)(F)F)cc5F)[C@H]4C(=O)O)cc3)ccc2n1C (single isomer, unassigned) [Example 142] | 2000 |
| Cc1nc2cc(S(=O)(=O)N(C)c3ccc([C@H]4C[C@@H](O)C[C@@H](C(=O)Nc5ccc(C(F)(F)F)cc5F)[C@H]4C(=O)O)cc3)ccc2n1C (single isomer, unassigned) [Example 143] | 15.8 |
| Cc1nc2cc(S(=O)(=O)N(C)c3ccc([C@H]4C[C@@H](O)C[C@@H](C(=O)Nc5ccc(C(F)(F)F)cc5F)[C@@H]4C(=O)O)cc3)ccc2n1C (single isomer, unassigned) [Example 144] | 50.1 |

Further lines, results first:

| IC50 [nM] | Structure (SMILES) |
| --- | --- |
| 79.4 | O=C(O)[C@@H]1[C@@H](c2ccc(C(F)(F)F)cc2)CCC[C@H]1C(=O)Nc1ccc(C(F)(F)F)cc1F (racemic) [Example 247, rac-(1R,2R,6S)-2-((2-fluoro-4-(trifluoromethyl)phenyl)carbamoyl)-6-(4-(trifluoromethyl)phenyl)cyclohexane-1-carboxylic acid] |
| 1.58 | CCN[C@@H]1CC[C@@H](C(=O)Nc2ccc(C(C)C)cc2)[C@H](C(=O)O)[C@H]1c1ccc(N(C)S(=O)(=O)c2ccc3c(c2)nc(C)n3C)cc1 (racemic) [Example 249, rac-(1R,2S,3R,6R)-3-(ethylamino)-6-((4-isopropylphenyl)carbamoyl)-2-(4-((N,1,2-trimethyl-1H-benzo[d]imidazole)-5-sulfonamido)phenyl)cyclohexane-1-carboxylic acid] |
| 2 | Cc1nc2cc(S(=O)(=O)N(C)c3ccc([C@H]4C[C@H](N(C)C)C[C@@H](C(=O)Nc5ccc(C(F)(F)F)cc5F)[C@@H]4C(=O)O)cc3)ccc2n1C (relative stereo) [Example 253, rel-(1R,2R,4S,6S)-4-(dimethylamino)-2-((2-fluoro-4-(trifluoromethyl)phenyl)carbamoyl)-6-(4-((N,1,2-trimethyl-1H-benzo[d]imidazole)-5-sulfonamido)phenyl)cyclohexane-1-carboxylic acid] |
| 631 | Cc1nc2cc(S(=O)(=O)Nc3ccc([C@H]4CCC[C@@H](C(=O)Nc5ccc(C(F)(F)F)cc5F)[C@@H]4C(=O)O)cc3)ccc2[nH]1 (relative stereo) [Example 258, rel-(1R,2R,6S)-2-((2-fluoro-4-(trifluoromethyl)phenyl)carbamoyl)-6-(4-((2-methyl-1H-benzo[d]imidazole)-5-sulfonamido)phenyl)cyclohexane-1-carboxylic acid] |
| 1.58 | Cc1nc2cc(S(=O)(=O)N(C)c3ccc([C@H]4CNC[C@@H](C(=O)Nc5ccc(C(F)(F)F)cc5F)[C@@H]4C(=O)O)cc3)ccc2n1C (relative stereo) [Example 308, rel-(3R,4S,5R)-3-((2-fluoro-4-(trifluoromethyl)phenyl)carbamoyl)-5-(4-((N,1,2-trimethyl-1H-benzo[d]imidazole)-5-sulfonamido)phenyl)piperidine-4-carboxylic acid] |
| 631 | Cc1nc2cc(S(=O)(=O)N(C)c3ccc([C@@H]4C[C@@H](N5CCOCC5)C[C@H](C(=O)Nc5ccc(C(F)(F)F)cc5F)[C@H]4C(=O)O)cc3)ccc2n1C (relative stereo) [Example 339, rel-(1R,2R,4S,6S)-2-((2-fluoro-4-(trifluoromethyl)phenyl)carbamoyl)-4-morpholino-6-(4-((N,1,2-trimethyl-1H-benzo[d]imidazole)-5-sulfonamido)phenyl)cyclohexane-1-carboxylic acid] |
| 7940 | Cc1nc2cc(S(=O)(=O)N(C)c3ccc([C@@H]4C[C@@H](N5CCC(F)(F)CC5)C[C@H](C(=O)Nc5ccc(C(F)(F)F)cc5F)[C@H]4C(=O)O)cc3)ccc2n1C (relative stereo) [Example 341, rel-(1R,2R,4S,6S)-4-(4,4-difluoropiperidin-1-yl)-2-((2-fluoro-4-(trifluoromethyl)phenyl)carbamoyl)-6-(4-((N,1,2-trimethyl-1H-benzo[d]imidazole)-5-sulfonamido)phenyl)cyclohexane-1-carboxylic acid] |
| 12600 | Cc1nc2cc(S(=O)(=O)N(C)c3ccc([C@@H]4C[C@@H](N5CC6(F)CC5C6)C[C@H](C(=O)Nc5ccc(C(F)(F)F)cc5F)[C@H]4C(=O)O)cc3)ccc2n1C (relative stereo) [Example 399, rel-(1R,2R,4S,6S)-2-((2-fluoro-4-(trifluoromethyl)phenyl)carbamoyl)-4-(4-fluoro-2-azabicyclo[2.1.1]hexan-2-yl)-6-(4-((N,1,2-trimethyl-1H-benzo[d]imidazole)-5-sulfonamido)phenyl)cyclohexane-1-carboxylic acid] |
